Test results taken from patent publication US4444780A, “Method for treating atopic dermatitis” (priority 1982, dated 1984).
“Also recorded” adds a separate entry of the source. Like-named read-outs stand apart in the source and are kept apart here.

How the values were obtained:
Δ5 -lipoxygenase = target: T1, Δ5 -lipoxygenase (Rattus norvegicus, UniProt P12527); assay: Lipoxygenase activity in Rat Basophilic Leukemia Cells (RBL-1), 5-HETE formation; format: cell-based; conditions: for effect on lipoxygenase activity (in words): rat basophilic cells
T1 construct: Crude cell extract was used as the source of the Δ5 -lipoxygenase enzyme; endogenous in cells; host or cells: RBL-1 (rat basophilic leukemia) cells, whole or sonicated crude extract
T1 sequence (P12527 1-673): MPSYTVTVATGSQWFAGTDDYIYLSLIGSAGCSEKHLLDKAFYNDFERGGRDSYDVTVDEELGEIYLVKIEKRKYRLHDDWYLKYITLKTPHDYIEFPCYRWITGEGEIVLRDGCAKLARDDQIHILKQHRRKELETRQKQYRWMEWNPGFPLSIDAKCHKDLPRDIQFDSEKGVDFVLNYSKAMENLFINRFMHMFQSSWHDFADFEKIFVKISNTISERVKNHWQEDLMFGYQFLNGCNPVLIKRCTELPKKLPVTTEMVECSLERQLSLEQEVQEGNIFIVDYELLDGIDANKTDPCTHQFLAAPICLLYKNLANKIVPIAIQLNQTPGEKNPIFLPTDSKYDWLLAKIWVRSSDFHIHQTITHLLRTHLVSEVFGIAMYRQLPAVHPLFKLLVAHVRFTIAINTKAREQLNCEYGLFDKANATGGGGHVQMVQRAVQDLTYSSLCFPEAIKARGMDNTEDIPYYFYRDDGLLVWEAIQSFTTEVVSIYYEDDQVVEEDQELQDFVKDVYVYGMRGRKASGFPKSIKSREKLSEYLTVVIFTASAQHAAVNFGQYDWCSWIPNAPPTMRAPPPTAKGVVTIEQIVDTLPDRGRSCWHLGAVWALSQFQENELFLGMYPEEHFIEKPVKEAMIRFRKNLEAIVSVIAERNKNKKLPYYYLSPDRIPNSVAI
Protocol: Rat basophilic leukemia cells (RBL-1) are basophilic members of the leukocyte series and constitute a circulating form of the mast cell, i.e. they share many or all of the biochemical features of the mast cell involved in mediator release. As leukemic cells they are readily available as they can be grown in culture. RBL-1 cells were grown in minimal essential medium (MEM) containing 10% fetal calf serum, 5% calf serum, 2 mM glutamine, and 50 μg/ml gentamicin. The cells were harvested for each assay, washed once with 50 mM potassium phosphate, 1 mM EDTA, and 0.1% gelatin, pH=7.0. The cells were then resuspended to a concentration of 1.85×10^7 cells/ml. For broken cell assays (i.e. to measure direct effects on the enzyme), these cells were sonicated in an ultrasonic sonifier for 3 minutes while maintaining the sample temperature at 4° C. Crude cell extract was used as the source of the Δ5 -lipoxygenase enzyme. […] The reaction was stopped by the addition of 1 M citric acid to give a final pH of approximately 3.5. The reaction mixture was extracted with diethylether, brought to dryness under a stream of nitrogen and the residues were resuspended and spotted on Gilman ITLC silica gel-impregnated glass filter strips. Synthetic hydroxyeicosotetraenoic acid (5-HETE) standard was spotted with each sample and the sheets were developed in isoctane:2-butanone:glacial acetic acid (100:9:1). After development, the sheets were dried, and the 5-HETE standard was visualized in a tank of iodine crystals. Areas corresponding to 5-HETE were quantitated by liquid scintillation counting. The remainder of each lane was also counted in four sections. Activity was determined as the percent conversion of the total counts in each lane to the area corresponding to 5-HETE. Percent inhibition was calculated from the change in percent conversion in the presence of drug. Blanks determined in the presence of boiled cells were subtracted from all values.

[1] = test system: passive cutaneous anaphylaxis reaction; assay: Passive Cutaneous Anaphylaxis Test (PCA), topical antiallergic activity; format: in vivo, Male Sprague Dawley rats; conditions: for inhibition in vivo at 0.02 % / inhibition in vivo at 0.2 % / inhibition in vivo at 2 % / inhibition in vivo at 0.01 % / inhibition in vivo at 1 %: Rattus norvegicus, read-out: Percent Inhibition
Description: Male Sprague Dawley rats (175-200 grams) were sensitized intradermally with 0.1 cc of high dilution of antiovalbumin antiserum (IgE-containing) that was predetermined to cause a well circumscribed and reproducible skin wheal response. Two intradermal sensitization sites were applied to the backs of each rat. […] One hour later the rats were challenged intravenously with a solution containing 0.5% ovalbumin and 0.5% Evans blue dye in a saline vehicle. Twenty minutes later the rats were killed by carbon dioxide asphyxiation, the dorsal skin reflected and the blue wheal measured as the mean of the two largest perpendiculars. This mean was used to calculate the area of the wheal according to [A=π(d/2)^2 ]. The wheal area under the drug-treated site was used as an index of local topical activity and the distant site served as an index of systemic activity.

[2] = test system: K^+ -stimulated Ca^++ -uptake in rabbit aortic slices; assay: Calcium Uptake in Rabbit Aorta (K+-stimulated Ca++ uptake in aortic slices); format: cell-based, New Zealand white rabbits; conditions: for inhibition of K+-stimulated Ca++ uptake (in words): rabbit aortic slices, FIG. 2; for effects on calcium mechanisms / calcium movement assays (in words): summary over aortic uptake and contraction assays
Protocol: Female, New Zealand white rabbits (1-2 kg) were sacrificed by cervical dislocation, and the thoracic […] was immediately removed, cleaned, and sliced into rings (5-20 mg). The tissue was preincubated at 37° C. for 60 minutes. […] After allowing radioactive calcium uptake to occur for 45 minutes, the reaction was stopped by transferring the tissue to a wash-out solution containing 80 mM LaCl3 for 30 minutes. The tissue was removed, blotted of excess moisture, and weighed. The aortic slices were then placed into scintillation vials containing 1 ml Protosol tissue solubilizer and incubated overnight at 55° C. After coding and acidifying, the samples were counted to determine ^45 Ca uptake. Sample results were normalized to counts per minutes per mg, wet tissue weight.

[3] = test system: K^+ -Stimulated Ca^++ -mediated Contractions of Rabbit Aortic Strips; assay: Potassium-Induced Calcium-Mediated Contraction of Aortic Strips; format: cell-based, New Zealand strain rabbits; conditions: for IC50: Oryctolagus cuniculus, read-out: IC50, K+-stimulated Ca++-mediated contractions
Description: New Zealand strain rabbits (1-1.5 kg) were sacrificed by cervical dislocation and the thoracic cavity was opened to expose a section of the aorta. A section of the aorta from the diaphragm to the aortic arch was isolated, dissected out and immediately placed in chilled Krebs bicarbonate buffer solution. A 2 inch section of the aorta was supported on a glass rod in a petri dish with chilled Krebs bicarbonate solution and cleaned of excess tissue. The aorta was then cut into helical strips (3×30 mm) and suspended from a FT03 isometric force displacement transducer coupled to a Beckman recorder. The tissue bath was filled with Krebs bicarbonate buffer maintained at 37° C. and bubbled with 95% 02 and 5% CO2. The helical strips were allowed to equilibrate for 1.5 to 2 hours with a 4 gram resting load. The tissues were dosed in a cumulative manner with 10 mM, 15 mM, 20 mM, 30 mM, 40 mM, 80 mM and 120 mM KCl. The tissues were washed several times after the KCl treatment and were allowed to equilibrate for 1-1.5 hours until a baseline equivalent to 4 grams tension was achieved. A second dose-response to KCl was repeated and again washed and allowed to equilibrate. […] Changes in grams tension were recorded.

[4] = RBL-1, 1 μM, read-out: % Inhibition of lipoxygenase activity
[5] = RBL-1, 100 μM, read-out: % Inhibition of lipoxygenase activity
[6] = RBL-1, read-out: % Inhibition of lipoxygenase activity

Structure (SMILES)	effect on lipoxygenase activity (in words) (Δ5 -lipoxygenase)	inhibition in vivo at 0.02 % ([1]; Topical Dose 0.02%)	inhibition in vivo at 0.2 % ([1]; Topical Dose 0.20%)	inhibition in vivo at 2 % ([1]; Topical Dose 2.00%)	Significance (P < .05) of inhibition ([1]; Topical Dose 0.02%)	Significance (P < .05) of inhibition ([1]; Topical Dose 0.20%)	Significance (P < .05) of inhibition ([1]; Topical Dose 2.00%)	activity in the PCA test (in words) ([1]; topical)	inhibition at 100 µM (Δ5 -lipoxygenase; [6])	inhibition of vascular contraction (in words) ([3]; rabbit aortic strips)	Significance (P < .05) of inhibition ([1]; Topical Dose 1.00%)	other results
CN(C)CCC(c1ccc(Cl)cc1)c1ccccn1 (stereo not drawn) [Chlorpheniramine, chlorpheniramine]	totally inactive; also recorded: None of the compounds produced significant inhibition	20%	16.3%	16.7%	No	No	No	totally inactive	–	–	–	inhibition at 1 µM (Δ5 -lipoxygenase; [4]): 0%; inhibition at 100 µM (Δ5 -lipoxygenase; [5]): 1%; Inhibition of 45Ca++ Uptake Aortic Slices (summary grade) ([2]; Table 4 grade, symbols not defined): +; inhibition of K+-stimulated Ca++ uptake (in words) [2]: totally inactive; effects on calcium mechanisms / calcium movement assays (in words) [2]: marginal effects
CN1CCC(=C2c3ccccc3C=Cc3ccccc32)CC1 [Cyproheptadine, cyproheptadine]	statistically equipotent effects on lipoxygenase activity from either whole or broken cells	–	–	–	–	–	–	potent topical antiallergic effect	78%	potent inhibitors	Yes	inhibition in vivo at 0.01 % ([1]; topical): 11.7%; inhibition in vivo at 1 % ([1]; topical): 98.1%; Significance (P < .05) of inhibition ([1]; Topical Dose 0.01%): No; Percent Inhibition ([1]; Topical Dose 0.10%): 25.0%; Significance (P < .05) of inhibition ([1]; Topical Dose 0.10%): Yes; topical ED50, inhibition in the PCA test ([1]; topical 0.1 ml, 1 hour before challenge, vehicle water/alcohol/N-decylmethylsulfoxide, 95% F.L. 0.07, 0.25): 0.13%; inhibition of cutaneous allergic reaction (in words) ([1]; topical, 1% dose): virtually complete inhibition; IC50 ([2]; Oryctolagus cuniculus, read-out: IC50, K+-stimulated Ca++ uptake): ~1000 nM
CN(C)CCOC(c1ccccc1)c1ccccc1 [Diphenhydramine, diphenhydramine]	–	0%	8.5%	43.9%	No	No	No	inactive	–	–	–	–
Fc1ccc(C(c2ccc(F)cc2)N2CCN(C/C=C/c3ccccc3)CC2)cc1 [Flunarizine, flunarizine]	–	16.3%	13%	17.2%	No	No	No	inactive	–	–	–	–
OCCOCCN1CCN(C(c2ccccc2)c2ccc(Cl)cc2)CC1 (stereo not drawn) [Hydroxyzine, hydroxyzine]	totally inactive; also recorded: None of the compounds produced significant inhibition	–	–	–	–	–	–	totally inactive	–	orders of magnitude less potent	No	inhibition at 1 µM (Δ5 -lipoxygenase; [4]): 0%; inhibition at 100 µM (Δ5 -lipoxygenase; [5]): 15%; IC50 ([3]; rabbit aortic strips): 50000 nM; inhibition in vivo at 0.01 % ([1]; Topical Dose 0.01%): 0%; inhibition in vivo at 1 % ([1]; Topical Dose 1.00%): 0%; Significance (P < .05) of inhibition ([1]; Topical Dose 0.01%): No; Percent Inhibition ([1]; Topical Dose 0.10%): 9.7%; Significance (P < .05) of inhibition ([1]; Topical Dose 0.10%): No; inhibition of K+-stimulated Ca++ uptake (in words) [2]: did not produce 50% inhibition even at a concentration of an order of magnitude greater than the IC50 for cyproheptadine; effects on calcium mechanisms / calcium movement assays (in words) [2]: marginal effects
CC[C@@H](CO)NC(=O)[C@@H]1C=C2c3cccc4c3c(cn4C)C[C@H]2N(C)C1 [Methysergide, methysergide]	None of the compounds produced significant inhibition	–	–	–	–	–	–	–	30%	–	–	inhibition at 1 µM (Δ5 -lipoxygenase; [6]): 1%
CN(C)CCOc1ccccc1Cc1ccccc1 [Phenyltoloxamine, phenyltoloxamine]	–	2.6%	14.3%	25.9%	No	No	No	inactive	–	–	–	–
COc1ccc(CCN(C)CCCC(C#N)(c2ccc(OC)c(OC)c2)C(C)C)cc1OC (stereo not drawn) [Verapamil, verapamil]	slight activity; also recorded: None of the compounds produced significant inhibition with the exception of the very high dose (1×10^-4 M) of verapamil	–	–	–	–	–	–	totally inactive	51%	potent inhibitors	No	inhibition at 1 µM (Δ5 -lipoxygenase; [6]): 0%; IC50 [3]: 550 nM; inhibition in vivo at 1 % ([1]; topical): 0%
